Data published in patent US12011619B2, “Low intensity focused ultrasound for treating cancer and metastasis” (priority 2015, dated 2024).

Key:
[1] = tested on: RM1 tumor (murine prostate cancer cell line); test: RM1 tumor growth in C57Bl/6 mice; format: in vivo, mouse; conditions: for tumor volume: untreated tumor 1879±98.65 mm^3
Method: (§1) This protocol yielded an approximate in situ spatial-peak temporal-average acoustic intensity of 270 W/cm^2, resulting in estimated average intra-tumoral temperature elevation of 3.2° C. Post-treatment, there were no signs of normal tissue toxicity such as alopecia, thermal damage, or skin wounds. […] Control mice were injected with equal volume of the vehicle DMSO, which was used to solubilize 17AAG.
(§2) C57Bl/6 and BalbC nu/nu mice were injected subcutaneously with 1×10^5 RM-1 (murine prostate cancer cell line) and 1×10^6 PC3 (human prostate cancer cell line) cells on the flank, respectively. Approximately 10 days later, the tumor became palpable (3-5 mm in diameter), whereupon LOFU treatment was initiated. […] Palpable tumors were treated with LOFU every 3-4 days for five fractions administered over two weeks. Animals received 17AAG three times a week during this time. Tumor volume measurements were performed twice weekly using Vernier calipers along with simultaneous physical assessment of signs of systemic toxicity (malaise and diarrhea).

[2] = Toxicity / survival of 17AAG dosing in mice (Kaplan Meier, signs of toxicity); format: in vivo
Method: as §1
Thus, these dose levels were selected for the current study. The goal was to combine two therapies that are nontoxic, albeit subtherapeutic, and examine whether the combination can be therapeutic. […] To detect the level of ER stress, the expression levels of ER chaperones, ERp44, ERp57, and ERp72 were quantitated among different treatment groups. ERp44 is responsible for oxidative protein folding. ERp57 is an ER resident thiol disulfide oxidoreductase while Erp72 is a disulfide isomerase. All these proteins participate in the protein folding machinery of the ER.
as §2
Mice survival/mortality in different treatment groups was analyzed by Kaplan-Meier as a function of radiation dose using Sigma-Plot and GraphPad Prism (version 4.0 for OS X, San Diego, CA, USA) software.

[3] = tested on: CHOP transcript; test: Real Time-PCR analysis of CHOP mRNA in tumors; format: in vivo, mouse; conditions: RM1 tumors
From the text: Although phosphorylated eIF2α decreases the translation of most cellular proteins, including pro-survival and anti-apoptotic proteins, it increases the translation of a transcription factor, ATF4 that is responsible for inducing the transcription of pro-apoptotic genes, such as, CCAAT/enhancer-binding protein homologous protein (CHOP), thereby preparing the cell for programmed cell death in case the misfolded proteins are not repaired and ER stress persists.
Real Time PCR analysis of UPR target genes 24 hr after LOFU treatment the RM1 tumor cells were lysed using RLT buffer mixed with 1% betamercaptoethanol from RNeasy Mini Kit (Qiagen, Valencia, CA, USA).
Qiagen's protocol for the RNeasy Mini Kit with on-column DNA digestion was used to isolate RNA from the tumor lysates. The RNA samples were stored at −80° C., prior to further use. Isolated RNA was subjected to cDNA synthesis using the SuperScript™ First-Strand Synthesis System (Invitrogen, Grand Island, NY, USA). The splicing of XBP1 RNA was detected using the following primer pair 5′-[…]-3′ (SEQ ID NO:19) and 5′-[…]-3′ (SEQ ID NO:20) (Fisher Scientific, Pittsburgh, PA, USA). […]
Primers used for real time PCR included GRP78 5′[…]3′ (SEQ ID NO:21) and 5′[…]3′ (SEQ ID NO:22); EDEM 5′ […] […] Data was analyzed by web based PCR array data analysis software from SA Biosciences.

## C=CCNC1=C2C[C@@H](C)C[C@H](OC)[C@H](O)[C@@H](C)/C=C(\C)[C@H](OC(N)=O)[C@@H](OC)/C=C\C=C(/C)C(=O)NC(=CC1=O)C2=O [17AAG, 17-N-allylamino-17-demethoxygeldanamycinan]
[1]; 17AAG 50 mg/kg b.w. i.p. three times a week, C57Bl/6 mice
  tumor volume: 964 mm^3
[1]; 17AAG 75 mg/kg b.w. i.p. three times a week, C57Bl/6 mice
  tumor volume: 485±24.25 mm^3
[1]; RM1 tumors, 17AAG 25 mg/kg alone
  interval within which all the animals achieved tumor size 2000 mm^3: 26 to 30 days
[1]; RM1 tumors, 17AAG 25 mg/kg, C57Bl/6 mice
  average estimated tumor growth slower compared to control group: 9%
[2]; 75 mg/kg of body weight, after 21 days of treatment, C57Bl/6 mice
  death of mice (Kaplan Meier survival analysis): 50%
[2]; Balb/c nude mice
  low dose found to be nontoxic: 14 mg/kg
[2]; C57Bl/6 mice
  low dose found to be nontoxic: 25 mg/kg
[2]; low dose 17AAG 25 mg/kg body weight, C57Bl/6 mice
  normal tissue toxic effect: did not show any normal tissue toxic effect
[3]
  CHOP transcript levels, induction compared to untreated controls: 14.8±2 fold
